Experimental data: PubChem BioAssay AID248 (DTP/NCI, 2004)
Toxic doses and inconclusive results are not listed. Rule as the data show it: active = T/C of 150% or more; inactive = T/C below 125%.

Tested on: L1210 leukemia ip in BDF1 mice, survival T/C
Test: NCI In Vivo Anticancer Drug Screen. Data for tumor model L1210 Leukemia (intraperitoneal) in B6D2F1 (BDF1) mice
Conditions: higher = longer survival
Method in brief: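 Tumor cells were implanted, animals were treated, and survival was followed. The result divides the treated measurement by the vehicle-control measurement.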

[1] = endpoint: mean survival time, dose: 12.5 mg/kg/injection, schedule: Q04DX003 (ip), vehicle: Klucel (hydroxypropylcellulose) (HPC)
[2] = endpoint: mean survival time, dose: 25.0 mg/kg/injection, schedule: Q04DX003 (ip), vehicle: Klucel (hydroxypropylcellulose) (HPC)
[3] = endpoint: mean survival time, dose: 50.0 mg/kg/injection, schedule: Q01DX009 (ip), vehicle: saline with Tween-80
[4] = endpoint: mean survival time, dose: 100.0 mg/kg/injection, schedule: Q01DX009 (ip), vehicle: Klucel (hydroxypropylcellulose) (HPC)
[5] = endpoint: mean survival time, dose: 200.0 mg/kg/injection, schedule: Q01DX009 (ip), vehicle: Klucel (hydroxypropylcellulose) (HPC)
[6] = endpoint: mean survival time, dose: 400.0 mg/kg/injection, schedule: Q01DX009 (ip), vehicle: Klucel (hydroxypropylcellulose) (HPC)

Measured: T/C

CC(C)CCNc1ccc(NCCC(C)C)cc1
inactive: endpoint: mean survival time, dose: 12.5 mg/kg/injection, schedule: Q01DX009 (ip), vehicle: saline with Tween-80 100 % of control | [1] 104 % of control | endpoint: mean survival time, dose: 25.0 mg/kg/injection, schedule: Q01DX009 (ip), vehicle: saline with Tween-80 100 % of control | [2] 96 % of control | [3] 96 % of control | endpoint: mean survival time, dose: 50.0 mg/kg/injection, schedule: Q04DX003 (ip), vehicle: Klucel (hydroxypropylcellulose) (HPC) 96 % of control | endpoint: mean survival time, dose: 75.0 mg/kg/injection, schedule: Q01DX009 (ip), vehicle: alcohol 86 % of control

CC(=O)OC1CCC2(COS(=O)(=O)c3ccc(C)cc3)C(=CCC3C2CCC2(C)C(C(C)CCCC(C)C)CCC32)C1 (configuration not stated)
inactive: endpoint: mean survival time, dose: 100.0 mg/kg/injection, schedule: Q04DX002 (ip), vehicle: steriod suspending solution 101 % of control | endpoint: mean survival time, dose: 200.0 mg/kg/injection, schedule: Q04DX002 (ip), vehicle: steriod suspending solution 104 % of control | endpoint: mean survival time, dose: 400.0 mg/kg/injection, schedule: Q04DX002 (ip), vehicle: steriod suspending solution 96 % of control

O=[N+]([O-])c1ccc(/C=C/c2ccccc2)cc1
inactive: [4] 97 % of control | endpoint: mean survival time, dose: 100.0 mg/kg/injection, schedule: Q04DX003 (ip), vehicle: Klucel (hydroxypropylcellulose) (HPC) 109 % of control | [5] 95 % of control | endpoint: mean survival time, dose: 200.0 mg/kg/injection, schedule: Q04DX003 (ip), vehicle: Klucel (hydroxypropylcellulose) (HPC) 98 % of control | [6] 96 % of control | endpoint: mean survival time, dose: 400.0 mg/kg/injection, schedule: Q04DX003 (ip), vehicle: Klucel (hydroxypropylcellulose) (HPC) 105 % of control

Nc1nc(Nc2ccc(Cl)c(Cl)c2)cc(=O)[nH]1
inactive: endpoint: mean survival time, dose: 200.0 mg/kg/injection, schedule: Q01DX Z (ip), vehicle: methylcellulose (MC) 86 % of control

S=C(NNc1ccccc1)NC1CCCCC1
inactive: endpoint: mean survival time, dose: 150.0 mg/kg/injection, schedule: Q01DX009 (ip), vehicle: saline with Tween-80 95 % of control | endpoint: mean survival time, dose: 225.0 mg/kg/injection, schedule: Q01DX009 (ip), vehicle: saline with Tween-80 97 % of control | endpoint: mean survival time, dose: 335.0 mg/kg/injection, schedule: Q01DX009 (ip), vehicle: saline with Tween-80 92 % of control

Brc1cccc[n+]1CCC[n+]1ccccc1Br
inactive: endpoint: mean survival time, dose: 2.2 mg/kg/injection, schedule: Q01DX Z (ip), vehicle: saline 93 % of control | endpoint: mean survival time, dose: 3.3 mg/kg/injection, schedule: Q01DX Z (ip), vehicle: saline 87 % of control | endpoint: mean survival time, dose: 5.0 mg/kg/injection, schedule: Q01DX Z (ip), vehicle: saline 98 % of control

CC(C)(C)C1COP(=O)(C(C)(C)C)OC1 (configuration not stated)
inactive: [1] 94 % of control | [2] 96 % of control

O=C(O)c1ccccc1Br
inactive: endpoint: mean survival time, dose: 100.0 mg/kg/injection, schedule: Q04DX002 (ip), vehicle: saline with Tween-80 96 % of control | endpoint: mean survival time, dose: 200.0 mg/kg/injection, schedule: Q04DX002 (ip), vehicle: saline with Tween-80 93 % of control

Cc1cccc(C)c1NC(=O)NS(=O)(=O)c1ccccc1
inactive: [3] 90 % of control | endpoint: mean survival time, dose: 100.0 mg/kg/injection, schedule: Q01DX009 (ip), vehicle: saline with Tween-80 100 % of control | endpoint: mean survival time, dose: 100.0 mg/kg/injection, schedule: Q04DX003 (ip), vehicle: acetone 95 % of control | endpoint: mean survival time, dose: 200.0 mg/kg/injection, schedule: Q01DX009 (ip), vehicle: saline with Tween-80 95 % of control | endpoint: mean survival time, dose: 200.0 mg/kg/injection, schedule: Q04DX003 (ip), vehicle: acetone 103 % of control

CC(=O)CCC(=O)OCCCl
inactive: endpoint: mean survival time, dose: 50.0 mg/kg/injection, schedule: Q01DX009 (ip), vehicle: saline 102 % of control | endpoint: mean survival time, dose: 100.0 mg/kg/injection, schedule: Q01DX009 (ip), vehicle: saline 101 % of control | endpoint: mean survival time, dose: 200.0 mg/kg/injection, schedule: Q01DX009 (ip), vehicle: saline 101 % of control

Cc1cccc(S(=O)(=O)CS(=O)(=O)c2cccc(C)c2)c1
inactive: endpoint: mean survival time, dose: 75.0 mg/kg/injection, schedule: Q01DX001 (ip), vehicle: carboxymethylcellulose (CMC) 102 % of control | endpoint: mean survival time, dose: 150.0 mg/kg/injection, schedule: Q01DX001 (ip), vehicle: carboxymethylcellulose (CMC) 96 % of control | endpoint: mean survival time, dose: 300.0 mg/kg/injection, schedule: Q01DX001 (ip), vehicle: carboxymethylcellulose (CMC) 91 % of control

CSc1nn(C)c2cc(C)c3ccccc3[n+]12
inactive: endpoint: mean survival time, dose: 5.0 mg/kg/injection, schedule: Q01DX001 (ip), vehicle: saline 108 % of control | endpoint: mean survival time, dose: 10.0 mg/kg/injection, schedule: Q01DX001 (ip), vehicle: saline 106 % of control | endpoint: mean survival time, dose: 20.0 mg/kg/injection, schedule: Q01DX001 (ip), vehicle: saline 103 % of control | endpoint: mean survival time, dose: 40.0 mg/kg/injection, schedule: Q01DX001 (ip), vehicle: saline 100 % of control

Cc1ccc(NC(=S)NCCc2ccccn2)cc1C
inactive: [4] 96 % of control | [5] 99 % of control | [6] 91 % of control

CC1c2ncnc(N)c2CN1C(=O)c1ccccc1 (configuration not stated)
inactive: endpoint: mean survival time, dose: 100.0 mg/kg/injection, schedule: Q01DX001 (ip), vehicle: carboxymethylcellulose (CMC) 98 % of control | endpoint: mean survival time, dose: 200.0 mg/kg/injection, schedule: Q01DX001 (ip), vehicle: carboxymethylcellulose (CMC) 98 % of control

C[C@]12CC[C@H](O)C[C@H]1CC[C@@H]1[C@@H]2CC[C@]2(C)[C@@H](C3=CC(=O)OC3)CC[C@]12O
inactive: endpoint: mean survival time, dose: 50.0 mg/kg/injection, schedule: Q01DX001 (ip), vehicle: carboxymethylcellulose (CMC) 101 % of control | endpoint: median survival time, dose: 2.0 mg/kg/injection, schedule: Q01DX005 (ip), vehicle: water 98 % of control | endpoint: median survival time, dose: 4.0 mg/kg/injection, schedule: Q01DX005 (ip), vehicle: water 98 % of control | endpoint: median survival time, dose: 8.0 mg/kg/injection, schedule: Q01DX005 (ip), vehicle: water 103 % of control

C(=N\N1CCN(/N=C/c2ccc3c(c2)OCO3)CC1)/c1ccc2c(c1)OCO2
inactive: endpoint: mean survival time, dose: 100.0 mg/kg/injection, schedule: Q01DX001 (ip), vehicle: saline 104 % of control | endpoint: mean survival time, dose: 200.0 mg/kg/injection, schedule: Q01DX001 (ip), vehicle: saline 102 % of control | endpoint: mean survival time, dose: 400.0 mg/kg/injection, schedule: Q01DX001 (ip), vehicle: saline 96 % of control

CCCCSc1ccccn1
inactive: endpoint: mean survival time, dose: 50.0 mg/kg/injection, schedule: Q04DX003 (ip), vehicle: saline 114 % of control | endpoint: mean survival time, dose: 100.0 mg/kg/injection, schedule: Q04DX003 (ip), vehicle: saline 98 % of control | endpoint: mean survival time, dose: 200.0 mg/kg/injection, schedule: Q04DX003 (ip), vehicle: saline 90 % of control
